Results as given in patent US11396513B2, “Compositions for activating pyruvate kinase” (FORMA Therapeutics, Inc., priority 2017, dated 2022).

Key:
PKR (wild type) = PKR (wild type) (Homo sapiens, UniProt P30613); test: Luminescence Assay (Kinase Glo Plus), PKR wild type; assay type: biochemical
Protocol: (§1) The ability of compound 1 to activate PKR was determined using the following Luminescence Assay. The effect of phosphorylation of adenosine-5′-diphosphate (ADP) by PKR (wild type) is determined by the Kinase Glo Plus Assay (Promega) in the presence or absence of FBP [D-Fructose-1,6-diphosphate; BOC Sciences, CAS: 81028-91-3] as follows. Unless otherwise indicated, all reagents are purchased from Sigma-Aldrich. All reagents are prepared in buffer containing 50 mM Tris-HC1, 100 mM KC1, 5 mM MgC12, and 0.01% Triton X100, 0.03% BSA, and 1 mM DTT. Enzyme and PEP [Phospho(enol) pyruvic acid] are added at 2× to all wells of an assay-ready plate containing serial dilutions of test compounds or DMSO vehicle. Final enzyme concentrations for PKR(wt), PKR(R510Q), and PKR(G332S) are 0.8 nM, 0.8 nM, and 10 nM respectively. Final PEP concentration is 100 μM. The Enzyme/PEP mixture is incubated with compounds for 30 minutes at RT before the assay is initiated with the addition of 2×ADP [Adenosine-5′-diphosphate] and KinaseGloPlus. Final concentration of ADP is 100 μM. […] For assays containing FBP, that reagent is added at 30 μM upon reaction initiation. Reactions are allowed to progress for 45 minutes at RT until luminescence is recorded by the BMG PHERAstar FS Multilabel Reader. The compound is tested in triplicate at concentrations ranging from 42.5 μM to 2.2 nM in 0.83% DMSO. […]

PKR(G332S) = PKR(G332S) (Homo sapiens, UniProt P30613, G332S); test: Luminescence Assay (Kinase Glo Plus), G332S PKR mutant; assay type: biochemical; details: G332S PKR mutant 10 nM; PEP 100 μM; ADP 100 μM; four parameter fit; triplicate
Protocol: as §1

Sequence of PKR (wild type) (P30613 whole entry): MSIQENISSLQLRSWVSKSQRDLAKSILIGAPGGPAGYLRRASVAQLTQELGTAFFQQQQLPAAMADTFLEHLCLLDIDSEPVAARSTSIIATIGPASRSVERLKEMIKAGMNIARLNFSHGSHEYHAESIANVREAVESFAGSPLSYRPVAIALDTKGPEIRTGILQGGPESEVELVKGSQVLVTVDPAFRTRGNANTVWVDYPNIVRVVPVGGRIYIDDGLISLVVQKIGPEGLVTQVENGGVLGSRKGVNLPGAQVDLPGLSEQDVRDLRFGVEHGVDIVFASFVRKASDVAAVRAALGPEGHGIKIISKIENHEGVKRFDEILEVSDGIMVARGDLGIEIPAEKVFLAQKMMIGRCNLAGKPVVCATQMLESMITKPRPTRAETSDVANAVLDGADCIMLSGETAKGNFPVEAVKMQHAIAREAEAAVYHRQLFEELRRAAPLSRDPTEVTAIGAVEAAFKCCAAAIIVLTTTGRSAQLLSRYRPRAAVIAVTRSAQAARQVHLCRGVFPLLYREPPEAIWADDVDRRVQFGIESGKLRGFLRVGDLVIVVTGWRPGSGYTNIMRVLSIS
Sequence of PKR(G332S) (P30613 whole entry G332S): as the sequence (P30613 whole entry) above, with G332S counted along it

AC50 (PKR (wild type); Luminescence Assay, PKR form not specified, definition of PKR Activator Compound): < 1000 nM
AC50 (PKR (wild type); PKR wild type enzyme 0.8 nM, PEP 100 μM, ADP 100 μM, four parameter fit, triplicate): 100 to 1000 nM
AC50 (PKR(G332S)): 100 to 1000 nM
Compound: CC(C)(O)C(=O)N1CC2=C(C1)CN(S(=O)(=O)c1ccc3c(c1)NCCO3)C2 [compound 1, 1-(5-((3,4-Dihydro-2H-benzo[b][1,4]oxazin-6-yl)sulfonyl)-3,4,5,6-tetrahydropyrrolo[3,4-c]pyrrol-2(1H)-yl)-2-hydroxy-2-methylpropan-1-one]
